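How tested: cells in 96-well plates exposed to compound for 48 hours at five concentrations. At the TGI there is no net growth.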
Columns and labels:
Assay in all cases: inhibition of tumour cell growth, NCI panel, 48 h
RPMI-8226 leukemia = system: RPMI-8226 leukemia
UO-31 renal = system: UO-31 renal
EKVX NSCLC = system: EKVX NSCLC
OVCAR-5 ovarian = system: OVCAR-5 ovarian
CAKI-1 renal = system: CAKI-1 renal
SN12C renal = system: SN12C renal
ACHN renal = system: ACHN renal
SR leukemia = system: SR leukemia
MOLT-4 leukemia = system: MOLT-4 leukemia
SK-MEL-5 melanoma = system: SK-MEL-5 melanoma

SMILES | TGI (RPMI-8226 leukemia) [µM] | TGI (UO-31 renal) [µM] | TGI (EKVX NSCLC) [µM] | TGI (OVCAR-5 ovarian) [µM] | TGI (CAKI-1 renal) [µM] | TGI (SN12C renal) [µM] | TGI (ACHN renal) [µM] | TGI (SR leukemia) [µM] | TGI (MOLT-4 leukemia) [µM] | TGI (SK-MEL-5 melanoma) [µM]
O=c1[nH]nc(-c2ccc([N+](=O)[O-])cc2)[nH]1 | > 100 | > 100 | > 100 | > 100 | > 100 | > 100 | > 100 | > 100 | > 100 | 
CC1=CC(O)CC(C)(C)C1/C=C/C(C)=C/C=C/C(C)=C/C=C/C=C(C)/C=C/C=C(C)/C=C/C1=C(C)CC(O)CC1(C)C (centres undefined) | > 100 | > 100 | > 100 | 78.4 | 51.4 |  | 31.1 | > 100 | > 100 | 32.7
C=CCN(c1cc(OC)c2[nH]c(C(=O)O)c(C)c2c1[N+](=O)[O-])S(C)(=O)=O | > 100 | > 100 | > 100 | > 100 | > 100 | > 100 | > 100 | > 100 | > 100 | > 100
Fc1cccc(F)c1C1SCc2nc3cc(Cl)ccc3n21 (centres undefined) | 69.2 | > 47.2 | > 100 | > 100 | > 65.9 | > 100 | > 100 | 65.7 | 54.7 | 30.3
Cc1ccc2nc(Nc3ccccc3C)c(Nc3ccccc3C)nc2c1 | > 100 | 60.8 | > 100 | 47.5 | > 95.7 | > 100 | > 100 | > 100 | > 100 | > 63.8
COc1cc2c3cc1Oc1cc(ccc1O)C[C@@H]1c4c(cc(OC)c(O)c4Oc4ccc(cc4)C[C@@H]3[N+](C)(C)CC2)CC[N+]1(C)C | > 100 | > 100 | > 100 | > 100 | > 100 | > 100 | > 100 | > 100 | > 100 | > 100
Nc1cc2nc(-c3ccccc3)cn2cn1 | > 100 | > 100 | 95.3 | > 100 | > 100 | > 100 | > 100 |  | > 100 | > 100
COC(=O)[C@@H]1[C@H]2CC[C@]3(C)[C@@H](OC(C)=O)CC[C@H]3[C@@H]2CC[C@H]1C1(C)SCCS1 | 43.4 | > 100 | 74.4 | 50.8 | > 100 | 37 | > 100 |  | 59.3 | 21.4
O=c1cccc2n1CC1CNCC2C1 (centres undefined) | > 100 | > 100 | > 100 | > 100 | > 100 | > 100 | > 100 |  | > 100 | > 100
CCCCCc1cc(CCCC)sc1-c1ccco1 | > 100 | > 100 | > 100 | > 100 | > 100 | > 100 | > 100 | > 100 | > 100 | > 100
CC(=O)N=S(NC(=O)c1ccc(C)cc1)C(Cl)(Cl)Cl (centres undefined) | > 100 | 56 | > 100 | > 100 |  | > 100 | > 100 |  | 83.8 | 77.9
CCOP(=O)(CC1OC(CO)C(O)C1O)OCC (centres undefined) | > 100 | > 100 | > 100 | > 100 | > 100 | > 100 | > 100 | > 100 | > 100 | > 100
CC(Br)CN(CC(C)Br)c1ccc2c(c1)Cc1ccccc1-2 (centres undefined) | 71.8 | 24.9 | 30.3 | 34.9 | 21.1 | 26.7 | 19.5 | 14.9 | 34.6 | 25.2
CCc1nc2c([nH]1)C(=O)c1ccccc1C2=O |  | > 100 | > 100 | > 100 | > 100 | > 100 | > 100 | > 100 | > 100 | 
CC1OC2OC3C(OCC(O)C3O)OC(=O)[C@]34CCC(C)(C)CC3C3=CCC5[C@@]6(C)C[C@H](O)[C@H](OC7OC(CO)C(O)C(O)C7OC7OC(COC(=O)CC(C)(O)CC(=O)OC1C(OC1OC(CO)C(O)C(O)C1O)C2O)C(O)C(O)C7O)[C@@](C)(CO)C6CC[C@@]5(C)[C@]3(C)CC4 (some centres undefined) | 10.2 | 5.31 |  | 5.7 | 17.7 | 14.8 | 8.36 | 12.4 | 12.7 | 0.272
Cc1cccc2c(N)c3cccc(C(=O)NCC[N+](C)(C)[O-])c3nc12 | > 100 | > 100 | 87.4 | 27.6 | > 100 | > 100 | 77.9 |  | > 100 | > 100
O/N=C/[C@H]1COC2(CCCCC2)O1 | > 100 | > 100 | > 100 | > 100 |  | > 100 | > 100 |  | > 100 | > 100
C/C(=C\CO)CC[C@@H]1[C@@]2(C)CCCC(C)(C)[C@@H]2CC[C@@]1(C)O | 36.5 | 50.3 | 51.5 | 49.3 | 72.1 | 33.8 | > 100 |  | 69.2 | 31.8
O=C(O[C@@H](/C=C/c1ccccc1)P1(=O)N(Cc2ccccc2)[C@@H]2CCCC[C@H]2N1Cc1ccccc1)c1ccccc1 | 6.24 | 27.4 | > 100 | > 100 | 4.41 | 40.8 | > 100 | > 100 |  | 4.16
CC1CCc2sc3[nH]c(=S)n(C)c(=O)c3c2C1 (centres undefined) | > 100 | 33.6 | 94.6 | > 100 | > 100 | > 100 | > 100 | > 100 | > 100 | > 100
C[C@@](Br)(C(=O)O)[C@H](Br)C(=O)O | > 100 | > 100 | > 100 | > 100 | > 100 | > 100 | > 100 |  | > 100 | > 100
